In one assay the test system is Pseudomonas aeruginosa. As to the kind of experiment: Antibacterial activity against Pseudomonas aeruginosa by NCCLS method. The class given is functional.
Another assay deals with Cyberlindnera jadinii. Nature of the assay: Antifungal activity against Candida utilis by NCCLS method. In kind it is functional. To be noted: Williopsis jadinii.
The test system of the next assay is Micrococcus luteus. Nature of the assay: Antibacterial activity against Micrococcus luteus ATCC 4698 by NCCLS method. The class given is functional.
A further assay has as its system Escherichia coli. Nature of the assay: Antibacterial activity against Escherichia coli DH52 by NCCLS method. The class given is functional.
Another assay has as its system Saccharomyces cerevisiae. As to the kind of experiment: Antifungal activity against Saccharomyces cerevisiae by NCCLS method. The class given is functional.
A further assay has as its system Salmonella typhi. As to the kind of experiment: Antibacterial activity against Eberthella typhosa by NCCLS method. In kind it is functional, Salmonella enterica subsp. enterica serovar Typhi. To be noted: Salmonella enterica.
The next assay concerns Candida albicans. Nature of the assay: Antifungal activity against Candida albicans by NCCLS method. The class given is functional.
For the next assay, the system named is Shigella dysenteriae. Nature of the assay: Antibacterial activity against Shigella dysenteriae by NCCLS method. The class given is functional.
In assay [1] the test system is Staphylococcus aureus. As to the kind of experiment: Antibacterial activity against Staphylococcus aureus ATCC 25923 by NCCLS method. In kind it is functional.
For assay [2], the system named is Staphylococcus aureus. Nature of the assay: Antibacterial activity against methicillin-resistant Staphylococcus aureus N315 by NCCLS method. The class given is functional.
Assay [3] has as its system Aspergillus flavus. Nature of the assay: Antifungal activity against Aspergillus flavus by NCCLS method. The class given is functional.
Assay [4] relates to Aspergillus flavus. As to the kind of experiment: Ratio of Fluconazole MIC to compound MIC for Aspergillus flavus. The class given is functional.

≈ marks a conversion by molar mass, not a printed value. Bounds are passed on as bounds.

This note sets out measurements from ChEMBL document CHEMBL2380271, “Synthesis and biological evaluation of a class of quinolone triazoles as potential antimicrobial agents and their interactions with calf thymus DNA” (2013).

A word on the MIC: it is the least concentration at which growth counts as inhibited.

With `CCOC(=O)c1cn(CC2CO2)c2ccc(C)cc2c1=O` (racemic), the MIC was determined as 32 µg/mL (≈ 111 µM) against Pseudomonas aeruginosa; 256 µg/mL (≈ 891 µM) in the assay on Cyberlindnera jadinii; 32 µg/mL (≈ 111 µM) in the assay with Micrococcus luteus; 128 µg/mL (≈ 446 µM) in the assay with Escherichia coli; 64 µg/mL (≈ 223 µM) in the assay with Saccharomyces cerevisiae; 2 µg/mL (≈ 6.96 µM) against Salmonella typhi. For the same molecule, the minimum inhibitory concentration (MIC) stood at 2 µg/mL (≈ 6.96 µM) in the assay on Candida albicans; 128 µg/mL (≈ 446 µM) against Shigella dysenteriae; 256 µg/mL (≈ 891 µM) with Staphylococcus aureus [1]; 16 µg/mL (≈ 55.7 µM) in the assay with Staphylococcus aureus [2]; 16 µg/mL (≈ 55.7 µM) against Aspergillus flavus [3].

For `CCOC(=O)c1cn(CC2CO2)c2ccc(F)cc2c1=O` (racemic), the minimum inhibitory concentration (MIC) against Pseudomonas aeruginosa was found to be 128 µg/mL (≈ 439 µM); in the assay on Cyberlindnera jadinii, 256 µg/mL (≈ 879 µM); in the assay with Micrococcus luteus, 512 µg/mL (≈ 1760 µM); against Escherichia coli it was 64 µg/mL (≈ 220 µM); against Saccharomyces cerevisiae it was 2 µg/mL (≈ 6.87 µM); in the assay on Salmonella typhi it was 8 µg/mL (≈ 27.5 µM). For the same molecule, the MIC came to 16 µg/mL (≈ 54.9 µM) in the assay on Candida albicans; 64 µg/mL (≈ 220 µM) against Shigella dysenteriae; 32 µg/mL (≈ 110 µM) with Staphylococcus aureus [1]; 4 µg/mL (≈ 13.7 µM) in the assay with Staphylococcus aureus [2]; 1 µg/mL (≈ 3.43 µM) against Aspergillus flavus [3]. Besides, the Ratio with Aspergillus flavus [4] was determined as 256.

With `CCOC(=O)c1cn(CC2CO2)c2c(Cl)cc(Cl)cc2c1=O` (racemic), the minimal inhibitory concentration (MIC) in the assay on Pseudomonas aeruginosa is 0.5 µg/mL (≈ 1.46 µM); with Cyberlindnera jadinii it was over 512 µg/mL; against Micrococcus luteus, over 512 µg/mL; in the assay with Escherichia coli it was 32 µg/mL (≈ 93.5 µM); in the assay on Saccharomyces cerevisiae it was 8 µg/mL (≈ 23.4 µM); in the assay on Salmonella typhi, 2 µg/mL (≈ 5.84 µM). The MIC in the assay with Candida albicans is 2 µg/mL (≈ 5.84 µM); against Shigella dysenteriae, over 512 µg/mL; with Staphylococcus aureus [1] it was 1 µg/mL (≈ 2.92 µM); with Staphylococcus aureus [2] it was 2 µg/mL (≈ 5.84 µM); with Aspergillus flavus [3], 0.5 µg/mL (≈ 1.46 µM). Also, the Ratio with Aspergillus flavus [4] was 256.

Turning to `CCOC(=O)c1cn(CC2CO2)c2c(F)cccc2c1=O` (racemic), the minimal inhibitory concentration (MIC) against Pseudomonas aeruginosa is 256 µg/mL (≈ 879 µM); in the assay on Cyberlindnera jadinii, over 512 µg/mL; against Micrococcus luteus it was over 512 µg/mL; in the assay with Escherichia coli it was 16 µg/mL (≈ 54.9 µM); against Saccharomyces cerevisiae it was 4 µg/mL (≈ 13.7 µM); against Salmonella typhi it was 2 µg/mL (≈ 6.87 µM). Further, the minimal inhibitory concentration (MIC) amounted to 1 µg/mL (≈ 3.43 µM) in the assay with Candida albicans; 512 µg/mL (≈ 1760 µM) in the assay with Shigella dysenteriae; 2 µg/mL (≈ 6.87 µM) against Staphylococcus aureus [1]; 2 µg/mL (≈ 6.87 µM) in the assay on Staphylococcus aureus [2]; 0.5 µg/mL (≈ 1.72 µM) in the assay on Aspergillus flavus [3]. The Ratio in the assay on Aspergillus flavus [4] worked out at 256.

As for `CCOC(=O)c1cn(CC(O)Cn2cncn2)c2c(F)cc(F)cc2c1=O` (racemic), the MIC is 4 µg/mL (≈ 10.6 µM) in the assay on Pseudomonas aeruginosa; over 512 µg/mL in the assay with Cyberlindnera jadinii; 2 µg/mL (≈ 5.29 µM) against Micrococcus luteus; 8 µg/mL (≈ 21.1 µM) against Escherichia coli; 512 µg/mL (≈ 1350 µM) in the assay with Saccharomyces cerevisiae; 0.5 µg/mL (≈ 1.32 µM) against Salmonella typhi. For the same molecule, the minimal inhibitory concentration (MIC) stood at 64 µg/mL (≈ 169 µM) in the assay with Candida albicans; 32 µg/mL (≈ 84.6 µM) against Shigella dysenteriae; 1 µg/mL (≈ 2.64 µM) in the assay on Staphylococcus aureus [1]; 32 µg/mL (≈ 84.6 µM) in the assay with Staphylococcus aureus [2]; 64 µg/mL (≈ 169 µM) in the assay on Aspergillus flavus [3].

For the molecule `CCOC(=O)c1cn(CC(O)Cn2cncn2)c2ccc(C)cc2c1=O` (racemic), the minimal inhibitory concentration (MIC) against Pseudomonas aeruginosa is 2 µg/mL (≈ 5.61 µM); against Cyberlindnera jadinii it was over 512 µg/mL; in the assay with Micrococcus luteus it was 16 µg/mL (≈ 44.9 µM); in the assay on Escherichia coli, 4 µg/mL (≈ 11.2 µM); against Saccharomyces cerevisiae, 64 µg/mL (≈ 180 µM); against Salmonella typhi it was 4 µg/mL (≈ 11.2 µM). Further, the minimum inhibitory concentration (MIC) stood at 128 µg/mL (≈ 359 µM) in the assay with Candida albicans; 4 µg/mL (≈ 11.2 µM) with Shigella dysenteriae; 64 µg/mL (≈ 180 µM) against Staphylococcus aureus [1]; 2 µg/mL (≈ 5.61 µM) against Staphylococcus aureus [2]; 256 µg/mL (≈ 718 µM) in the assay on Aspergillus flavus [3].

As for `CCOC(=O)c1cn(CC(O)Cn2cncn2)c2ccc(F)cc2c1=O` (racemic), the MIC against Pseudomonas aeruginosa turned out to be 16 µg/mL (≈ 44.4 µM); in the assay with Cyberlindnera jadinii it was 64 µg/mL (≈ 178 µM); against Micrococcus luteus, 8 µg/mL (≈ 22.2 µM); against Escherichia coli, 16 µg/mL (≈ 44.4 µM); in the assay on Saccharomyces cerevisiae, 512 µg/mL (≈ 1420 µM); against Salmonella typhi, 1 µg/mL (≈ 2.78 µM). For the same molecule, the MIC against Candida albicans was 32 µg/mL (≈ 88.8 µM); against Shigella dysenteriae it was 64 µg/mL (≈ 178 µM); in the assay with Staphylococcus aureus [1], 32 µg/mL (≈ 88.8 µM); in the assay on Staphylococcus aureus [2], 8 µg/mL (≈ 22.2 µM); in the assay on Aspergillus flavus [3], 512 µg/mL (≈ 1420 µM).

For the molecule `O=C(N[C@H](CO)[C@H](O)c1ccc([N+](=O)[O-])cc1)C(Cl)Cl` [CHLORAMPHENICOL], the MIC against Pseudomonas aeruginosa is 32 µg/mL (≈ 99 µM); in the assay on Cyberlindnera jadinii it was over 512 µg/mL; against Micrococcus luteus, 8 µg/mL (≈ 24.8 µM); against Escherichia coli it was 32 µg/mL (≈ 99 µM); against Saccharomyces cerevisiae, over 512 µg/mL; against Salmonella typhi, 32 µg/mL (≈ 99 µM). The minimal inhibitory concentration (MIC) in the assay with Candida albicans was over 512 µg/mL; in the assay on Shigella dysenteriae, 32 µg/mL (≈ 99 µM); with Staphylococcus aureus [1], 16 µg/mL (≈ 49.5 µM); in the assay with Staphylococcus aureus [2] it was 16 µg/mL (≈ 49.5 µM); in the assay on Aspergillus flavus [3], over 512 µg/mL.

For `OC(Cn1cncn1)(Cn1cncn1)c1ccc(F)cc1F` [FLUCONAZOLE], the MIC against Pseudomonas aeruginosa was over 512 µg/mL; against Cyberlindnera jadinii it was 8 µg/mL (≈ 26.1 µM); with Micrococcus luteus, over 512 µg/mL; in the assay on Escherichia coli, over 512 µg/mL; against Saccharomyces cerevisiae, 16 µg/mL (≈ 52.2 µM); against Salmonella typhi, over 512 µg/mL. Moreover, the minimal inhibitory concentration (MIC) in the assay on Candida albicans is 1 µg/mL (≈ 3.27 µM); in the assay on Shigella dysenteriae it was over 512 µg/mL; in the assay on Staphylococcus aureus [1], over 512 µg/mL; with Staphylococcus aureus [2] it was over 512 µg/mL; against Aspergillus flavus [3], 256 µg/mL (≈ 836 µM).

For `CCn1cc(C(=O)O)c(=O)c2cc(F)c(N3CCNCC3)cc21` [NORFLOXACIN], the minimum inhibitory concentration (MIC) is 1 µg/mL (≈ 3.13 µM) with Pseudomonas aeruginosa; over 512 µg/mL in the assay with Cyberlindnera jadinii; 2 µg/mL (≈ 6.26 µM) against Micrococcus luteus; 16 µg/mL (≈ 50.1 µM) against Escherichia coli; over 512 µg/mL in the assay on Saccharomyces cerevisiae; 4 µg/mL (≈ 12.5 µM) in the assay with Salmonella typhi. The MIC in the assay on Candida albicans was over 512 µg/mL; against Shigella dysenteriae, 4 µg/mL (≈ 12.5 µM); against Staphylococcus aureus [1] it was 0.5 µg/mL (≈ 1.57 µM); with Staphylococcus aureus [2], 8 µg/mL (≈ 25.1 µM); against Aspergillus flavus [3], over 512 µg/mL.
